Converted amounts (≈) assume the structure as drawn.
How the values were obtained:
Test in all cases: ≥ marks a high value that may be exact or a test limit, other limits are often not marked, values filed in µg/mL are converted to µM
Escherichia coli = test system: Escherichia coli
Bacillus anthracis = test system: Bacillus anthracis
Staphylococcus aureus = test system: Staphylococcus aureus
Bacillus cereus = test system: Bacillus cereus
[1] = test system: Escherichia coli ATCC 25922
Bacillus subtilis = test system: Bacillus subtilis
[2] = test system: Candida albicans ATCC 90028
[3] = test system: Salmonella enterica subsp. enterica serovar Typhi
Enterobacter cloacae = test system: Enterobacter cloacae
[4] = test system: Staphylococcus aureus ATCC 25923
Pseudomonas aeruginosa = test system: Pseudomonas aeruginosa
[5] = test system: Pseudomonas aeruginosa ATCC 27853
[6] = test system: Candida albicans NCPF 1467
[7] = test system: Staphylococcus aureus NCTC 10788
[8] = test system: Escherichia coli NCTC 10418
Micrococcus luteus A270 = test system: Micrococcus luteus A270
Listeria innocua = test system: Listeria innocua
[9] = test system: Salmonella enterica subsp. enterica serovar Enteritidis
Leuconostoc lactis = test system: Leuconostoc lactis
Streptococcus uberis = test system: Streptococcus uberis
Micrococcus luteus = test system: Micrococcus luteus
Pasteurella multocida = test system: Pasteurella multocida
Enterococcus faecalis = test system: Enterococcus faecalis
[10] = test system: Staphylococcus aureus ATCC 29213
[11] = test system: Staphylococcus epidermidis
[12] = test system: Staphylococcus aureus ATCC 2592
[13] = test system: Candida albicans ATCC 2002
Escherichia coli K-12 = test system: Escherichia coli K-12
[14] = test system: Pseudomonas aeruginosa PAO1
[15] = test system: Staphylococcus aureus NCTC 8325-4
Klebsiella pneumoniae = test system: Klebsiella pneumoniae

MIC (Escherichia coli) | MIC (Staphylococcus aureus) | MIC (Bacillus subtilis) | MIC [2] | MIC [3] | MIC (Enterobacter cloacae) | MIC [4] | MIC (Pseudomonas aeruginosa) | MIC [5] | MIC (Listeria innocua) | SMILES | MIC (Bacillus cereus) | also measured
31 µM (≈ 64 µg/mL) | 61.9 µM (≈ 128 µg/mL) | 31 µM (≈ 64 µg/mL) | 31 µM (≈ 64 µg/mL) | 1.93 µM (≈ 4 µg/mL) | 31 µM (≈ 64 µg/mL) | 0.967 µM (≈ 2 µg/mL) | 7.74 µM (≈ 16 µg/mL) | 31 µM (≈ 64 µg/mL) | – | CC(C)C[C@H](NC(=O)[C@H](CCCCN)NC(=O)[C@H](CCCN=C(N)N)NC(=O)[C@H](Cc1ccccc1)NC(=O)[C@H](Cc1ccccc1)NC(=O)[C@H](CCCCN)NC(=O)[C@H](CCCCN)NC(=O)[C@H](Cc1ccccc1)NC(=O)[C@H](CCCN=C(N)N)NC(=O)[C@H](CCCCN)NC(=O)[C@@H](N)C(C)C)C(=O)N[C@@H](CCCCN)C(=O)N[C@@H](CCCCN)C(=O)N[C@@H](CO)C(=O)N[C@H](C(=O)N[C@@H](CCCCN)C(N)=O)C(C)C [VKRFKKFFRKLKKSVK] | – | MIC [1]: 1.93 µM (≈ 4 µg/mL)
– | – | – | – | – | – | – | – | – | – | CC[C@H](C)[C@H](NC(=O)[C@H](C)NC(=O)[C@H](CO)NC(=O)[C@@H]1CCCN1C(=O)[C@@H](NC(=O)[C@H](CC(C)C)NC(=O)[C@H](CO)NC(=O)[C@H](Cc1ccccc1)NC(=O)[C@H](CC(C)C)NC(=O)[C@@H](N)Cc1ccccc1)[C@@H](C)CC)C(=O)N[C@@H](C)C(=O)NCC(=O)N[C@@H](CC(C)C)C(=O)N[C@H](C(=O)N[C@@H](CO)C(=O)N[C@@H](C)C(=O)N[C@H](C(=O)N[C@@H](CCCN=C(N)N)C(=O)N[C@@H](CC(N)=O)C(N)=O)[C@@H](C)CC)C(C)C [FLFSLIPSAIAGLVSAIRN] | – | MIC [6]: 16.1 µM (≈ 32 µg/mL); MIC [7]: 8.04 µM (≈ 16 µg/mL); MIC [8]: ≥ 257 µM
9 µM (≈ 15.6 µg/mL) | – | – | – | – | – | – | – | – | 1 µM (≈ 1.73 µg/mL) | CC(C)C[C@H](NC(=O)[C@@H](N)Cc1ccccc1)C(=O)N[C@@H](CO)C(=O)N[C@@H](Cc1ccccc1)C(=O)N1CCC[C@H]1C(=O)N[C@H](C(=O)N[C@H](C(=O)N[C@@H](CCCCN)C(=O)N[C@H](C(=O)N[C@@H](Cc1ccc(O)cc1)C(=O)N[C@@H](Cc1ccccc1)C(=O)N1CCC[C@H]1C(=O)N[C@@H](Cc1cnc[nH]1)C(=O)N[C@@H](Cc1ccccc1)C(=O)O)[C@@H](C)O)[C@@H](C)O)[C@@H](C)O [FLSFPTTKTYFPHF] | – | MIC (Micrococcus luteus A270): 5 µM (≈ 8.67 µg/mL); MIC [9]: 9 µM (≈ 15.6 µg/mL)
> 38.3 µM | – | – | – | – | ≥ 38.3 µM | 19.2 µM (≈ 50 µg/mL) | > 38.3 µM | – | 9.58 µM (≈ 25 µg/mL) | CC[C@H](C)[C@H](NC(=O)[C@@H](NC(=O)[C@@H]1CCCN1C(=O)[C@H](C)NC(=O)[C@@H](NC(=O)[C@H](Cc1cnc[nH]1)NC(=O)[C@@H]1CCCN1C(=O)[C@H](CC(C)C)NC(=O)[C@H](CC(C)C)NC(=O)[C@H](Cc1cnc[nH]1)NC(=O)[C@H](CCCCN)NC(=O)[C@H](C)NC(=O)[C@@H](NC(=O)[C@H](CO)NC(=O)CNC(=O)[C@H](CC(C)C)NC(=O)[C@@H](NC(=O)[C@H](CO)NC(=O)[C@H](Cc1ccccc1)NC(=O)[C@H](CC(C)C)NC(=O)CN)C(C)C)C(C)C)C(C)C)[C@@H](C)CC)C(=O)N[C@@H](C)C(=O)N[C@@H](CCC(=O)O)C(=O)N[C@@H](CCCCN)C(=O)N[C@@H](CC(C)C)C(N)=O [GLFSVLGSVAKHLLPHVAPIIAEKL] | ≥ 38.3 µM | MIC (Leuconostoc lactis): 1.15 µM (≈ 3 µg/mL); MIC (Streptococcus uberis): 9.58 µM (≈ 25 µg/mL); MIC (Micrococcus luteus): 4.6 µM (≈ 12 µg/mL); MIC (Pasteurella multocida): 9.58 µM (≈ 25 µg/mL); MIC (Enterococcus faecalis): ≥ 38.3 µM; MIC [10]: 4.6 µM (≈ 12 µg/mL); MIC [11]: 4.6 µM (≈ 12 µg/mL)
29.1 µM (≈ 64 µg/mL) | 58.3 µM (≈ 128 µg/mL) | 29.1 µM (≈ 64 µg/mL) | 29.1 µM (≈ 64 µg/mL) | 1.82 µM (≈ 4 µg/mL) | ≥ 58.3 µM | 0.911 µM (≈ 2 µg/mL) | 7.29 µM (≈ 16 µg/mL) | 29.1 µM (≈ 64 µg/mL) | – | CC(C)C[C@H](NC(=O)[C@H](CCCCN)NC(=O)[C@H](CCCN=C(N)N)NC(=O)[C@H](Cc1ccccc1)NC(=O)[C@H](Cc1ccccc1)NC(=O)[C@H](CCCCN)NC(=O)[C@H](CCCCN)NC(=O)[C@H](Cc1ccccc1)NC(=O)[C@H](CCCN=C(N)N)NC(=O)[C@H](CCCCN)NC(=O)[C@@H](N)C(C)C)C(=O)N[C@@H](CCCCN)C(=O)N[C@@H](CCCCN)C(=O)N[C@@H](CO)C(=O)N[C@H](C(=O)N[C@@H](CCCCN)C(=O)N[C@@H](CCCCN)C(N)=O)C(C)C [VKRFKKFFRKLKKSVKK] | – | MIC [1]: 3.64 µM (≈ 8 µg/mL)
8.25 µM (≈ 16 µg/mL) | 8.25 µM (≈ 16 µg/mL) | ≥ 38.7 µM | ≥ 33 µM | 1.03 µM (≈ 2 µg/mL) | 4.12 µM (≈ 8 µg/mL) | 0.516 µM (≈ 0.999 µg/mL) | 8.25 µM (≈ 16 µg/mL) | 16.5 µM (≈ 32 µg/mL) | – | CC(C)C[C@H](NC(=O)[C@H](CCCCN)NC(=O)[C@H](CCCN=C(N)N)NC(=O)[C@H](Cc1ccccc1)NC(=O)[C@H](Cc1ccccc1)NC(=O)[C@H](CCCCN)NC(=O)[C@H](CCCCN)NC(=O)[C@H](Cc1ccccc1)NC(=O)[C@H](CCCN=C(N)N)NC(=O)[C@H](CCCCN)NC(=O)[C@@H](N)C(C)C)C(=O)N[C@@H](CCCCN)C(=O)N[C@@H](CCCCN)C(=O)N[C@@H](CO)C(=O)N[C@H](C(N)=O)C(C)C [VKRFKKFFRKLKKSV] | – | MIC [12]: ≥ 51.6 µM; MIC [13]: 9.67 µM (≈ 18.7 µg/mL)
46.8 µM (≈ 31.3 µg/mL) | – | – | – | – | – | – | – | – | ≥ 187 µM | CC(C)C[C@H](NC(=O)[C@H](CO)NC(=O)[C@H](Cc1cnc[nH]1)NC(=O)[C@H](CO)NC(=O)[C@H](CC(C)C)NC(=O)[C@@H](N)CC(C)C)C(=O)O [LLSHSL] | – | MIC (Micrococcus luteus A270): ≥ 46.8 µM
– | – | – | – | – | – | – | – | – | – | CC(C)C[C@H](NC(=O)[C@H](CC(C)C)NC(=O)[C@H](CCCCN)NC(=O)[C@H](CCCCN)NC(=O)[C@H](CC(C)C)NC(=O)[C@H](CC(C)C)NC(=O)[C@H](CCCCN)NC(=O)[C@H](CCCCN)NC(=O)[C@@H](N)CC(C)C)C(=O)N[C@@H](CCCCN)C(N)=O [LKKLLKKLLK] | – | MIC (Escherichia coli K-12): 31.3 µM (≈ 38.3 µg/mL); MIC [14]: 62.5 µM (≈ 76.5 µg/mL); MIC [15]: ≥ 500 µM; MIC (Klebsiella pneumoniae): > 500 µM

SMILES | MIC (Escherichia coli) | MIC (Staphylococcus aureus) | MIC (Bacillus subtilis) | MIC [2] | MIC [3] | MIC (Enterobacter cloacae) | MIC [4] | MIC (Pseudomonas aeruginosa) | MIC [5] | MIC (Listeria innocua) | MIC (Bacillus cereus) | also measured
CC(C)C[C@H](NC(=O)[C@H](CCCCN)NC(=O)[C@H](Cc1ccccc1)NC(=O)[C@H](CC(C)C)NC(=O)[C@@H](NC(=O)[C@@H]1CCCN1C(=O)[C@@H](N)CC(C)C)C(C)C)C(=O)N[C@@H](C)C(=O)N[C@@H](CO)C(=O)N[C@@H](CCCCN)C(=O)N[C@H](C(=O)N[C@@H](Cc1ccccc1)C(=O)N1CCC[C@H]1C(=O)N[C@@H](C)C(=O)N[C@H](C(=O)N[C@@H](Cc1ccccc1)C(=O)N[C@@H](CO)C(=O)N[C@@H](CO)C(=O)N[C@@H](CC(C)C)C(=O)N[C@@H](CCCCN)C(=O)O)C(C)C)C(C)C [LPVLFKLASKVFPAVFSSLK] | 117 µM (≈ 256 µg/mL) | 58.4 µM (≈ 128 µg/mL) | – | – | – | – | – | – | – | – | 29.2 µM (≈ 64 µg/mL) | MIC (Bacillus anthracis): ≥ 58.4 µM
CC[C@H](C)[C@H](NC(=O)[C@H](CC(C)C)NC(=O)[C@H](CCCCN)NC(=O)[C@H](CCSC)NC(=O)[C@@H](NC(=O)[C@H](C)NC(=O)[C@H](C)NC(=O)[C@H](CCCN=C(N)N)NC(=O)[C@H](CCCCN)NC(=O)[C@H](Cc1ccccc1)NC(=O)[C@H](Cc1ccccc1)NC(=O)[C@H](CC(C)C)NC(=O)[C@@H](NC(=O)[C@H](C)NC(=O)CNC(=O)[C@@H](NC(=O)[C@H](CO)NC(=O)[C@@H]1CCCN1C(=O)[C@@H](NC(=O)[C@@H](N)CO)C(C)C)C(C)C)C(C)C)C(C)C)C(=O)O [SVPSVGAVLFFKRAAVMKLI] | > 120 µM | > 120 µM | – | – | – | – | – | – | – | – | ≥ 120 µM | MIC (Bacillus anthracis): ≥ 120 µM

Reference: DBAASP
